Assay results published in US20020115642A1, “Beta-lactam antibiotics” (priority 2000, published 2002).
Values after ≈ are worked out from the molar mass of the structure shown.

Columns and labels:
K. pneumoniae = assay: Susceptibility testing (MIC, modified NCCLS method); type: cell-based, Klebsiella pneumoniae; details: K. pneumoniae (5)
Summary of the method: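 Readout OD600 increase. Compounds (aqueous or DMSO stocks) serially diluted 2-fold across 20 concentrations, then inoculated with bacterial broth culture to final ~1-1.5×10^6 cells/ml; screening-adapted NCCLS microdilution.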

Gram-negative species = assay: MIC comparison with reference antibiotics, Gram-negative species; type: cell-based
Method: The NCCLS (National Committee for Clinical Laboratory Standards) method to determine MIC's of antimicrobial compounds was modified for high-throughput screening. All stocks of tested compounds were prepared in either water or in dimethylsulfoxide (DMSO), depending on the solubility. […] Briefly 20 2-fold serial dilutions of testing compounds from the highest concentration were made in a 384-well microtiter plate. Each well was inoculated with testing bacteria in broth to a final concentration of approximately 1-1.5×10^6 cells/ml. Bacterial growth was determined by the increase of optical density at 600 nm using a microplate reader (Tecan SpectraFluor Plus).

[1] = E. aerogenes, E. cloacae and K. pneumoniae

Compound: O=C(Cc1cccs1)N[C@@H]1C(=O)N2C(C(=O)O)=C(COc3cc(Cl)ccc3Oc3ccc(Cl)cc3Cl)CS[C@H]12 [Compound 9, 3-(2-(2,4-Dichlorophenoxy)-5-chlorophenoxy)methyl-7-(2-thienylacetamido)-3-cephem-4-carboxylic acid]
- MIC range (K. pneumoniae): 0.98 to 3.91 µg/mL
- MIC (K. pneumoniae; Klebsiella pneumoniae, read-out: GM* MIC (geometric mean)): 1.96 µg/mL (≈ 3.13 µM)
- fold less active than imipenem (Gram-negative species; [1]): 4 fold
- fold more active than cephalothin or ampicillin (Gram-negative species; [1]): at least 33 fold
- fold stronger than ampicillin and cephalothin (Gram-negative species; M. catarrhalis and H. influenzae, geometric mean MIC): at least 1000 fold
